Reference: patent US20230219921A1, “KCNT1 INHIBITORS AND METHODS OF USE” (Praxis Precision Medicines, Inc., priority 2020, published 2023)
Blank lines part the entries; values can stand above or below the compound they belong to.

Target: T1, KCNT1 (KNa1.1, Slack) (Homo sapiens, UniProt Q5JUK3)
T1 construct: expressed in transfected cells; host or cells: HEK-TREX (tetracycline-inducible HEK cell line)
T1 sequence (Q5JUK3 1-1230): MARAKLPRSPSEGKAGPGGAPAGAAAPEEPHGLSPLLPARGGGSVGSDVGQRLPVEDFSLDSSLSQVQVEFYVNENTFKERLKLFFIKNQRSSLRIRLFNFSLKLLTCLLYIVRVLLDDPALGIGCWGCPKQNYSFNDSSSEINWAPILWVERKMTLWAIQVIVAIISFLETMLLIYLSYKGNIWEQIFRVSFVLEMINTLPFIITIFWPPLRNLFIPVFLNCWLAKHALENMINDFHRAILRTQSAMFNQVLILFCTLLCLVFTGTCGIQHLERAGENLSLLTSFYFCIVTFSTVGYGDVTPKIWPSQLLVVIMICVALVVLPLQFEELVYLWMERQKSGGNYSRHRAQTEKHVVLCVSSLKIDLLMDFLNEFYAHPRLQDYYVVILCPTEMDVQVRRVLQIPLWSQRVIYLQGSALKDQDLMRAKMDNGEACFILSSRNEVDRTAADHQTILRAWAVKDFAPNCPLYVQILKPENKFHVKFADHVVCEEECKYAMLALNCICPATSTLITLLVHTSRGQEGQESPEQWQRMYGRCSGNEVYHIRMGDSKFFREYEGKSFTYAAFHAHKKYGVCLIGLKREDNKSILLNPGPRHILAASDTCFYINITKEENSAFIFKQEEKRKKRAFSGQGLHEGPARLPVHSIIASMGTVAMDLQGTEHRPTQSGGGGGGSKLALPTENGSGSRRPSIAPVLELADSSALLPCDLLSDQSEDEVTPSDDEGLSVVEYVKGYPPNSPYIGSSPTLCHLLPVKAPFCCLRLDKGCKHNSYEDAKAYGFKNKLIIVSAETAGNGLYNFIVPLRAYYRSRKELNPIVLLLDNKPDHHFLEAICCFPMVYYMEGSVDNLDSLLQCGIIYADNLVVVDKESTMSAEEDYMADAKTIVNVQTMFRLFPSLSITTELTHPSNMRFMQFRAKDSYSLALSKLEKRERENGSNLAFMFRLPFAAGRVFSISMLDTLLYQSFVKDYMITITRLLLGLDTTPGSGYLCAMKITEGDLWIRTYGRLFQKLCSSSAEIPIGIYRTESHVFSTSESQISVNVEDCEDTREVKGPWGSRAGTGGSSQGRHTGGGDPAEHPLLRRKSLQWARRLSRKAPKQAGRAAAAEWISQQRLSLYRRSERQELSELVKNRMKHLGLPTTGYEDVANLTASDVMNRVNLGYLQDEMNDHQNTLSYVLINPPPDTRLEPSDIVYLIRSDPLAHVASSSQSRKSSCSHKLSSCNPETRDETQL
Assay: KCNT1 patch clamp assay (SyncroPatch 384PE automated patch clamp)
Assay type: cell-based
Conditions: tetracycline inducible cell line (HEK-TREX); perforated patch mode; step from -80 mV to 0 mV; room temperature; read-out: KCNT1-WT IC50
Protocol: Inhibition of KCNT1 (KNa1.1, Slack) was evaluated using a tetracycline inducible cell line (HEK-TREX). Currents were recorded using the SyncroPatch 384PE automated, patch clamp system. Pulse generation and data collection were performed with PatchController384 V1.3.0 and DataController384 V1.2.1 (Nanion Technologies). The access resistance and apparent membrane capacitance were estimated using built-in protocols. Current were recorded in perforated patch mode (10 μM escin) from a population of cells. The cells were lifted, triturated, and resuspended at 800,000 cells/ml. The cells were allowed to recover in the cell hotel prior to experimentation. Currents were recorded at room temperature. The external solution contained the following (in mM): NaCl 105, NMDG 40, KCl 4, MgCl2 1, CaCl2 5 and HEPES 10 (pH=7.4, Osmolarity ˜300 mOsm). The extracellular solution was used as the wash, reference and compound delivery solution. The internal solution contained the following (in mM): NaCl 70, KF 70, KCl 10, EGTA 5, HEPES 5 and Escin 0.01 (pH=7.2, Osmolarity ˜295 mOsm). Escin is made at a 5 mM stock in water, aliquoted, and stored at −20° C. The compound plate was created at 2× concentrated in the extracellular solution. The compound was diluted to 1:2 when added to the recording well. The amount of DMSO in the extracellular solution was held constant at the level used for the highest tested concentration. A holding potential of −80 mV with a 100 ms step to 0 mV was used. Mean current was measured during the step to 0 mV. […] The average mean current from 3 sweeps was calculated and the % inhibition of each compound was calculated. The % Inhibition as a function of the compound concentration was fit with a Hill equation to derive IC50, slope, min and max parameters. If KCNT1 inhibition was less than 50% at the highest tested concentration or if an IC50 could not be calculated, then a percent inhibition was reported in place of the IC50.
In this table, “A” indicates IC50 of less than or equal to 1 μM; “B” indicates inhibition of between 1 μM to 20 μM; and “C” indicates inhibition of greater than or equal to 20 μM.

IC50: ≤ 1000 nM
Compound: CS(=O)(=O)c1ccc(C(=O)NCc2ccc(C(F)F)cc2)s1 [Compound 51, N-(4-(difluoromethyl)benzyl)-5-(methylsulfonyl)thiophene-2-carboxamide]

IC50: ≤ 1000 nM
Compound: CNS(=O)(=O)c1ccc(C(=O)NCc2ccc(Cl)cc2OC)s1 [Compound 13, N-(4-chloro-2-methoxybenzyl)-5-(N-methylsulfamoyl)thiophene-2-carboxamide]

IC50: 1000 to 20000 nM
Compound: CNS(=O)(=O)c1ccc(C(=O)NCc2ccc(C#N)cc2)s1 [Compound 17, N-(4-cyanobenzyl)-5-(N-methylsulfamoyl)thiophene-2-carboxamide]

IC50: 1000 to 20000 nM
Compound: CS(=O)(=O)c1ccc(C(=O)NCc2ccc(OCC(F)(F)F)cc2)s1 [Compound 34, 5-(methylsulfonyl)-N-(4-(2,2,2-trifluoroethoxy)benzyl)thiophene-2-carboxamide]

IC50: ≤ 1000 nM
Compound: CNS(=O)(=O)c1ccc(C(=O)NCc2ccc(Cl)cc2C)s1 [Compound 9, N-(4-chloro-2-methylbenzyl)-5-(N-methylsulfamoyl)thiophene-2-carboxamide]

IC50: ≤ 1000 nM
Compound: CC(C)c1ccc(CNC(=O)c2ccc(S(C)(=O)=O)s2)cc1 [Compound 24, N-(4-isopropylbenzyl)-5-(methylsulfonyl)thiophene-2-carboxamide]

IC50: ≤ 1000 nM
Compound: CCS(=O)(=O)c1ccc(C(=O)NCc2ccc(C(F)(F)F)cc2)s1 [Compound 49, 5-(ethylsulfonyl)-N-(4-(trifluoromethyl)benzyl)thiophene-2-carboxamide]

IC50: ≤ 1000 nM
Compound: CNS(=O)(=O)c1ccc(C(=O)NCc2ccc(Cl)cc2F)s1 [Compound 10, N-(4-chloro-2-fluorobenzyl)-5-(N-methylsulfamoyl)thiophene-2-carboxamide]

IC50: 1000 to 20000 nM
Compound: CNS(=O)(=O)c1ccc(C(=O)NCc2ccc(C(C)(C)C#N)cc2)s1 [Compound 38, N-(4-(2-cyanopropan-2-yl)benzyl)-5-(N-methylsulfamoyl)thiophene-2-carboxamide]

IC50: ≤ 1000 nM
Compound: CNS(=O)(=O)c1ccc(C(=O)NCc2ccc(C3CC3)cc2)s1 [Compound 26, N-(4-cyclopropylbenzyl)-5-(N-methylsulfamoyl)thiophene-2-carboxamide]

IC50: ≥ 20000 nM
Compound: CNS(=O)(=O)c1ccc(C(=O)NCc2ccc(N3CCCC3)cc2)s1 [Compound 30, 5-(N-methylsulfamoyl)-N-(4-(pyrrolidin-1-yl)benzyl)thiophene-2-carboxamide]

IC50: ≥ 20000 nM
Compound: CNS(=O)(=O)c1ccc(C(=O)NCc2ccc(NC(C)C)cc2)s1 [Compound 40, N-(4-(isopropylamino)benzyl)-5-(N-methylsulfamoyl)thiophene-2-carboxamide]

IC50: ≤ 1000 nM
Compound: CNS(=O)(=O)c1ccc(C(=O)NCc2ccc(C(C)(C)C)cc2)s1 [Compound 28, N-(4-(tert-butyl)benzyl)-5-(N-methylsulfamoyl)thiophene-2-carboxamide]

The next lines start with the compound.

Compound: CNS(=O)(=O)c1ccc(C(=O)N[C@@H](C)c2ccc(Cl)cc2Cl)s1 [Compound 2, (S)—N-(1-(2,4-dichlorophenyl)ethyl)-5-(N-methylsulfamoyl)thiophene-2-carboxamide]
IC50: ≤ 1000 nM

Compound: CNS(=O)(=O)c1ccc(C(=O)NCc2ccc(C(F)(F)F)cc2F)s1 [Compound 43, N-(2-fluoro-4-(trifluoromethyl)benzyl)-5-(N-methylsulfamoyl)thiophene-2-carboxamide]
IC50: ≤ 1000 nM

Compound: Cc1cc(C(F)F)ccc1CNC(=O)c1ccc(S(C)(=O)=O)s1 [Compound 53, N-(4-(difluoromethyl)-2-methylbenzyl)-5-(methylsulfonyl)thiophene-2-carboxamide]
IC50: ≤ 1000 nM

Compound: O=C(NCc1ccc(Cl)cc1Cl)c1ccc(S(=O)(=O)C2CC2)s1 [Compound 15, 5-(Cyclopropylsulfonyl)-N-(2,4-dichlorobenzyl)thiophene-2-carboxamide]
IC50: ≤ 1000 nM

Compound: Cc1cc(C(F)(F)F)ccc1CNC(=O)c1ccc(S(C)(=O)=O)s1 [Compound 44, N-(2-methyl-4-(trifluoromethyl)benzyl)-5-(methylsulfonyl)thiophene-2-carboxamide]
IC50: ≤ 1000 nM

Compound: O=C(NCc1ccc(C(F)(F)F)cc1)c1ccc(S(=O)(=O)C2CC2)s1 [Compound 47, 5-(cyclopropylsulfonyl)-N-(4-(trifluoromethyl)benzyl)thiophene-2-carboxamide]
IC50: ≤ 1000 nM

Compound: CC(C)S(=O)(=O)c1ccc(C(=O)NCc2ccc(C(F)(F)F)cc2)s1 [Compound 50, 5-(isopropylsulfonyl)-N-(4-(trifluoromethyl)benzyl)thiophene-2-carboxamide]
IC50: ≤ 1000 nM

Compound: CNS(=O)(=O)c1ccc(C(=O)NCc2ccc(Cl)cc2C2CC2)s1 [Compound 12, N-(4-chloro-2-cyclopropylbenzyl)-5-(N-methylsulfamoyl)thiophene-2-carboxamide]
IC50: ≤ 1000 nM

Compound: CS(=O)(=O)c1ccc(C(=O)NCc2ccc(C(F)(F)F)cc2F)s1 [Compound 42, N-(2-fluoro-4-(trifluoromethyl)benzyl)-5-(methylsulfonyl)thiophene-2-carboxamide]
IC50: ≤ 1000 nM

Compound: CNS(=O)(=O)c1ccc(C(=O)N[C@@H](C)c2ccc(Cl)cc2)s1 [Compound 5, (S)—N-(1-(4-chlorophenyl)ethyl)-5-(N-methylsulfamoyl)thiophene-2-carboxamide]
IC50: ≤ 1000 nM

Compound: CS(=O)(=O)c1ccc(C(=O)NCc2ccc(Cl)cc2Cl)s1 [Compound 6, N-(2,4-dichlorobenzyl)-5-(methylsulfonyl)thiophene-2-carboxamide]
IC50: ≤ 1000 nM

Compound: CS(=O)(=O)c1ccc(C(=O)NCc2ccc(C(F)(F)F)nc2)s1 [Compound 46, 5-(methylsulfonyl)-N-((6-(trifluoromethyl)pyridin-3-yl)methyl)thiophene-2-carboxamide]
IC50: 1000 to 20000 nM

Compound: Cc1cc(C(F)(F)F)ncc1CNC(=O)c1ccc(S(C)(=O)=O)s1 [Compound 54, N-((4-methyl-6-(trifluoromethyl)pyridin-3-yl)methyl)-5-(methylsulfonyl)thiophene-2-carboxamide]
IC50: 1000 to 20000 nM

Compound: CNS(=O)(=O)c1ccc(C(=O)N[C@H](C)c2ccc(Cl)cc2)s1 [Compound 4, (R)—N-(1-(4-chlorophenyl)ethyl)-5-(N-methylsulfamoyl)thiophene-2-carboxamide]
IC50: ≤ 1000 nM

Compound: COCCS(=O)(=O)c1ccc(C(=O)NCc2ccc(C(F)(F)F)cc2)s1 [Compound 52, 5-((2-methoxyethyl)sulfonyl)-N-(4-(trifluoromethyl)benzyl)thiophene-2-carboxamide]
IC50: ≤ 1000 nM

Compound: CNS(=O)(=O)c1ccc(C(=O)N[C@H](C)c2ccc(Cl)cc2Cl)s1 [Compound 1, (R)—N-(1-(2,4-dichlorophenyl)ethyl)-5-(N-methylsulfamoyl)thiophene-2-carboxamide]
IC50: 1000 to 20000 nM
